Assays:
[1] = test system: IL-6 secretion by endothelial cells (HMVEC); assay: AGE-induced inflammatory response determined by IL-6 ELISA; format: cell-based, human; conditions: 24 hrs
Method: These cell were allowed to reach >90% confluency before being subjected to experimental treatments. G-HSA was from US Biologicals. Tumor necrosis factor α (TNFα) was from R&D Systems.
HMVEC were treated with control medium or medium containing 100 ng/ml TNFα or 300 μg/ml G-HSA for 24 hrs. All treatments and controls were carried out in serum free media containing 0.2% albumin. Following treatment, cell media were collected and used for an IL-6 ELISA.
The IL-6 ELISA was carried out using human IL-6 DuoSet ELISA development kit as described by manufacturer (R&D Systems). Mouse anti-human IL-6 was used as the capture antibody (2 μg/ml) and biotinylated goat anti-human IL6 (200 ng/ml) was used as the detection antibody. The culture media were incubated with capture antibody for 2 h at room temperature in 96-well plates. The wells were washed three times with wash buffer (0.05% Tween-20 in phosphate buffered saline (PBS) pH 7.4) followed by incubation with detection antibody for 2 h at room temperature. Following three washes, the wells were incubated with Streptavidin-HRP for 20 min. Color development was read at 450 nm in a microplate reader.

[2] = test system: MCP-1 secretion by endothelial cells (HAEC and HMVEC); assay: AGE-induced inflammatory response determined by MCP-1 ELISA; format: cell-based, human; conditions: 100 ng/ml TNFα or 300 μg/ml G-HSA, 24 hrs, vs control medium (FIG. 2)
Method: HAEC and HMVEC (Clonetics) were cultured and subcultured according to manufacturer in growth medium (Clonetics): basal medium containing hEGF, hydrocortisone, VEGF, HFGF-B (with heparin), long R3-IGF-1, ascorbic acid, gentamicin/amphotericin and 5% FBS. These cells were allowed to reach >90% confluency before being subjected to experimental treatments.
Cells were treated with control medium or medium containing 100 ng/ml TNFα or 300 μg/ml G-HSA for 24 hrs. All treatments and controls were carried out in serum free media containing 0.2% albumin. Following treatment, media were collected and used for the MCP-1 ELISA.
MCP-1 ELISA was carried out using a DuoSet ELISA Development System for Human MCP-1 as described by the manufacturer (R&D Systems). 2 ug/ml of mouse anti-human MCP-1 was used as the capture antibody and 100 ng/ml biotinylated goat anti-human MCP-1 was used as the detection antibody. The culture media were incubated with capture antibody for 2 h at room temperature in 96-well plates. The wells were washed three times with wash buffer (0.05% Tween-20 in phosphate buffered saline (PBS) pH 7.4) followed by incubation with detection antibody for 2 h at room temperature. Color development was read at 450 nm in a microplate reader.

## Tumor necrosis factor α [TNFα]
[1]; 100 ng/ml TNFα or 300 μg/ml G-HSA, HMVEC, vs control medium (FIG. 1)
  increase in IL-6 secretion: 147%
[1]; 100 ng/ml TNFα, serum free media containing 0.2% albumin, vs control medium
  increase in IL-6 secretion by endothelial cells: greater than 2 fold
[2]
  increase in MCP-1 secretion: 540%
